Five compounds from patent US12097241B2, “Methods of treating kidney failure, and/or improving or stablizing renal function using modified relaxin polypeptides” (BRISTOL-MYERS SQUIBB COMPANY, priority 2017, dated 2024) can be followed below.

Like-named read-outs stand apart in the source and are kept apart here.

This test deals with T1, human RXFP1 receptor (Homo sapiens, UniProt Q9HBX9).
T1 construct: expressed in transfected cells
T1 sequence (Q9HBX9 1-757): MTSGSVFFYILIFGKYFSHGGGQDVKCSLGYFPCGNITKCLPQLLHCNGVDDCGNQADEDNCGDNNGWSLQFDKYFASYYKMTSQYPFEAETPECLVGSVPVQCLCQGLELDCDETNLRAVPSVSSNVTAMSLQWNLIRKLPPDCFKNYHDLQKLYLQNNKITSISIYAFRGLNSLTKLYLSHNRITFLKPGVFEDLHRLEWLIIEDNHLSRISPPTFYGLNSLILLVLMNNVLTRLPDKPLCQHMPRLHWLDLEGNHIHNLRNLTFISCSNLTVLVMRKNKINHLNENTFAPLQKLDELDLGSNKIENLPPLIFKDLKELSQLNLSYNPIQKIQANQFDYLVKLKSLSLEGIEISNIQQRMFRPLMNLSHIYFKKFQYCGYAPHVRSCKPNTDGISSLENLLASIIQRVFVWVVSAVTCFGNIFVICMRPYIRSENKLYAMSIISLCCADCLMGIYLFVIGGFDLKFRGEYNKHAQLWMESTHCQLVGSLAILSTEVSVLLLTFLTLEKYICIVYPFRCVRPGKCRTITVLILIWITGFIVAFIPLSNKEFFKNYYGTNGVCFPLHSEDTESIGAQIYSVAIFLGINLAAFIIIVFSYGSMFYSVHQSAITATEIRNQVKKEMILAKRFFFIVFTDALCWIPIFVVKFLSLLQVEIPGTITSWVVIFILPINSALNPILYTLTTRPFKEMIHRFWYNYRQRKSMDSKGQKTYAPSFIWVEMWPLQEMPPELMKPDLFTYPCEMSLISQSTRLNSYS
Put plainly: Intracellular cAMP accumulation assay. The class given is cell-based. In general terms: Cyclic AMP is a second messenger, typically raised through Gs and lowered through Gi signalling.

Method: The intracellular cAMP accumulation assay described herein was used to assess relaxin bioactivity and potency.
CHO-K1 cells (ATCC; Cat. #CRL-9618) stably expressing the human RXFP1 receptor (locus number LOC59350) (10,000/well) were plated into 96-well plates and cultured overnight at 37° C. and 5% CO2. On the following day, the medium was removed from the wells and the cells were stimulated with the addition of ligand (relaxin polypeptide) in 50 uL buffer (1×HBSS, 5 mM HEPES (7.2), 0.5 mM IBMX, 0.1% BSA); incubation was for 10 min at 37° C. Unstimulated cells were utilized as reference controls. Reactions were terminated and cellular cAMP levels were measured using the Homogeneous Time Resolved Fluorescence (HTRF) Dynamic 2 cAMP kit (CisBio, #62AM4PEC) according to the manufacturer's protocol. Plates were analyzed using an EnVision 2104 Multilablel Reader (PerkinElmer). Signal was expressed in terms of the ratio of fluorescence intensity @ 665 nm/fluorescence intensity @620 nm×10,000. The concentration of cAMP in the sample was determined by comparison with standard curves generated from known concentrations of cAMP. The potency of each relaxin was determined using a ten-point concentration response curves which was performed in duplicate. The data were analyzed using Microsoft Excel, Version 2013 Xlfit software. Effective concentration 50 (EC50) values, the point at which the response was one-half maximal, were calculated using a four-parameter logistic equation that allowed for a variable-slope (Table 3).

`CC[C@H](C)[C@@H]1NC(=O)[C@H](C)NC(=O)[C@H]([C@@H](C)CC)NC(=O)[C@H](CCC(N)=O)NC(=O)[C@H](C)NC(=O)[C@H](CCCNC(=N)N)NC(=O)[C@H](C(C)C)NC(=O)[C@H](CC(C)C)NC(=O)[C@H](CCC(=O)O)NC(=O)[C@H](CCCNC(=N)N)NC(=O)CNC(=O)[C@@H](NC(=O)[C@H](CC(C)C)NC(=O)[C@H](CCCCN)NC(=O)[C@@H](NC(=O)[C@@H](NC(=O)[C@H](CCC(=O)O)NC(=O)[C@H](CCC(=O)O)NC(=O)[C@H](CCSC)NC(=O)[C@H](Cc2c[nH]c3ccccc23)NC(=O)[C@H](CO)NC(=O)[C@H](C)N)C(C)C)[C@@H](C)CC)CSSC[C@@H]2NC(=O)[C@@H](NC(=O)[C@H](CCCCN)NC(=O)[C@H](CC(N)=O)NC(=O)[C@H](C)NC(=O)[C@H](CC(C)C)NC(=O)[C@H](C)NC(=O)[C@H](CO)NC(=O)[C@H](Cc3ccc(O)cc3)NC(=O)[C@H](CC(C)C)NC(=O)[C@@H](N)Cc3ccc(C(C)=NOCCNC(=O)[C@H](CCCCN)NC(=O)[C@H](CCCCN)NC(=O)[C@H](CO)NC(=O)[C@H](C)NC(=O)CNC(=O)[C@H](CO)NC(=O)[C@H](C)NC(=O)CNC(=O)CC[C@H](NC(=O)CCCCCCCCCCCCC(=O)O)C(=O)O)cc3)CSSC[C@H](NC(=O)CNC(=O)[C@H](C(C)C)NC(=O)[C@H](Cc3c[nH]cn3)NC2=O)C(=O)N[C@@H]([C@@H](C)O)C(=O)N[C@@H](CCCCN)C(=O)N[C@@H](CCCNC(=N)N)C(=O)N[C@@H](CO)C(=O)N[C@@H](CC(C)C)C(=O)N[C@@H](C)C(=O)N[C@@H](CCCNC(=N)N)C(=O)N[C@@H](Cc2ccccc2)C(=O)N[C@H](C(=O)O)CSSC[C@@H](C(=O)NCC(=O)N[C@@H](CCSC)C(=O)N[C@@H](CO)C(=O)N[C@H](C(=O)N[C@@H](Cc2c[nH]c3ccccc23)C(=O)N[C@@H](CO)C(=O)O)[C@@H](C)O)NC1=O` [AQ1-KKSAGSAG-Glu^γ-C13-COOH] had an EC50 of 0.27 nM.

As for `CC[C@H](C)[C@@H]1NC(=O)[C@H](C)NC(=O)[C@H]([C@@H](C)CC)NC(=O)[C@H](CCC(N)=O)NC(=O)[C@H](C)NC(=O)[C@H](CCCNC(=N)N)NC(=O)[C@H](C(C)C)NC(=O)[C@H](CC(C)C)NC(=O)[C@H](CCC(=O)O)NC(=O)[C@H](CCCNC(=N)N)NC(=O)CNC(=O)[C@@H](NC(=O)[C@H](CC(C)C)NC(=O)[C@H](CCCCN)NC(=O)[C@@H](NC(=O)[C@@H](NC(=O)[C@H](CCC(=O)O)NC(=O)[C@H](CCC(=O)O)NC(=O)[C@H](CCSC)NC(=O)[C@H](Cc2c[nH]c3ccccc23)NC(=O)[C@H](CO)NC(=O)[C@H](C)N)C(C)C)[C@@H](C)CC)CSSC[C@@H]2NC(=O)[C@@H](NC(=O)[C@H](CCCCN)NC(=O)[C@H](CC(N)=O)NC(=O)[C@H](C)NC(=O)[C@H](CC(C)C)NC(=O)[C@H](C)NC(=O)[C@H](CO)NC(=O)[C@H](Cc3ccc(O)cc3)NC(=O)[C@H](CC(C)C)NC(=O)[C@@H](N)Cc3ccc(C(C)=NOCCNC(=O)[C@H](CCCCN)NC(=O)[C@H](CCCCN)NC(=O)[C@H](CO)NC(=O)CNC(=O)CNC(=O)[C@H](CO)NC(=O)CNC(=O)CNC(=O)[C@H](CCC(=O)O)NC(=O)CCCCCCCCCCCCC(=O)O)cc3)CSSC[C@H](NC(=O)CNC(=O)[C@H](C(C)C)NC(=O)[C@H](Cc3c[nH]cn3)NC2=O)C(=O)N[C@@H]([C@@H](C)O)C(=O)N[C@@H](CCCCN)C(=O)N[C@@H](CCCNC(=N)N)C(=O)N[C@@H](CO)C(=O)N[C@@H](CC(C)C)C(=O)N[C@@H](C)C(=O)N[C@@H](CCCNC(=N)N)C(=O)N[C@@H](Cc2ccccc2)C(=O)N[C@H](C(=O)O)CSSC[C@@H](C(=O)NCC(=O)N[C@@H](CCSC)C(=O)N[C@@H](CO)C(=O)N[C@H](C(=O)N[C@@H](Cc2c[nH]c3ccccc23)C(=O)N[C@@H](CO)C(=O)O)[C@@H](C)O)NC1=O` [AQ1-KKSGGSGG-Glu^α-C13-COOH], the EC50 amounted to 0.27 nM.

As for `CC[C@H](C)[C@@H]1NC(=O)[C@H](C)NC(=O)[C@H]([C@@H](C)CC)NC(=O)[C@H](CCC(N)=O)NC(=O)[C@H](C)NC(=O)[C@H](CCCNC(=N)N)NC(=O)[C@H](C(C)C)NC(=O)[C@H](CC(C)C)NC(=O)[C@H](CCC(=O)O)NC(=O)[C@H](CCCNC(=N)N)NC(=O)CNC(=O)[C@@H](NC(=O)[C@H](CC(C)C)NC(=O)[C@H](CCCCN)NC(=O)[C@@H](NC(=O)[C@@H](NC(=O)[C@H](CCC(=O)O)NC(=O)[C@H](CCC(=O)O)NC(=O)[C@H](CCSC)NC(=O)[C@H](Cc2c[nH]c3ccccc23)NC(=O)[C@H](CO)NC(=O)[C@H](C)N)C(C)C)[C@@H](C)CC)CSSC[C@@H]2NC(=O)[C@@H](NC(=O)[C@H](CCCCN)NC(=O)[C@H](CC(N)=O)NC(=O)[C@H](C)NC(=O)[C@H](CC(C)C)NC(=O)[C@H](C)NC(=O)[C@H](CO)NC(=O)[C@H](Cc3ccc(O)cc3)NC(=O)[C@H](CC(C)C)NC(=O)[C@@H](N)Cc3ccc(/C(C)=N/OCCNC(=O)CN(C)C(=O)CN(C)C(=O)CN(C)C(=O)CN(C)C(=O)[C@H](CO)NC(=O)CC[C@H](NC(=O)CCCCCCCCCCCCC(=O)O)C(=O)O)cc3)CSSC[C@H](NC(=O)CNC(=O)[C@H](C(C)C)NC(=O)[C@H](Cc3c[nH]cn3)NC2=O)C(=O)N[C@@H]([C@@H](C)O)C(=O)N[C@@H](CCCCN)C(=O)N[C@@H](CCCNC(=N)N)C(=O)N[C@@H](CO)C(=O)N[C@@H](CC(C)C)C(=O)N[C@@H](C)C(=O)N[C@@H](CCCNC(=N)N)C(=O)N[C@@H](Cc2ccccc2)C(=O)N[C@H](C(=O)O)CSSC[C@@H](C(=O)NCC(=O)N[C@@H](CCSC)C(=O)N[C@@H](CO)C(=O)N[C@H](C(=O)N[C@@H](Cc2c[nH]c3ccccc23)C(=O)N[C@@H](CO)C(=O)O)[C@@H](C)O)NC1=O` [AQ1-Sar-Sar-Sar-Sar-Ser-Glu^γ-C13-COOH], the EC50 (CHO-K1 cells stably expressing human RXFP1, 10 min at 37° C., HTRF cAMP, average, read-out: hRXFP1/CHO-K1 cAMP EC50 (nM, avg)) amounted to 0.32 nM. Compound `CCCCCCCCCCCCCCC(=O)N[C@@H](CCC(=O)N[C@@H](CCC(=O)O)C(=O)N[C@@H](CCC(=O)O)C(=O)N[C@@H](CCC(=O)O)C(=O)N[C@@H](CCC(=O)O)C(=O)N[C@@H](CCC(=O)O)C(=O)N[C@@H](CCC(=O)O)C(=O)NCCON=C(C)c1ccc(C[C@H](N)C(=O)N[C@@H](CC(C)C)C(=O)N[C@@H](Cc2ccc(O)cc2)C(=O)N[C@@H](CO)C(=O)N[C@@H](C)C(=O)N[C@@H](CC(C)C)C(=O)N[C@@H](C)C(=O)N[C@@H](CC(N)=O)C(=O)N[C@@H](CCCCN)C(=O)N[C@H]2CSSC[C@@H]3NC(=O)CNC(=O)[C@H](C(C)C)NC(=O)[C@H](Cc4c[nH]cn4)NC(=O)[C@H](CSSC[C@H](NC(=O)[C@H](CC(C)C)NC(=O)[C@H](CCCCN)NC(=O)[C@@H](NC(=O)[C@@H](NC(=O)[C@H](CCC(=O)O)NC(=O)[C@H](CCC(=O)O)NC(=O)[C@H](CCSC)NC(=O)[C@H](Cc4c[nH]c5ccccc45)NC(=O)[C@H](CO)NC(=O)[C@H](C)N)C(C)C)[C@@H](C)CC)C(=O)NCC(=O)N[C@@H](CCCNC(=N)N)C(=O)N[C@@H](CCC(=O)O)C(=O)N[C@@H](CC(C)C)C(=O)N[C@@H](C(C)C)C(=O)N[C@@H](CCCNC(=N)N)C(=O)N[C@@H](C)C(=O)N[C@@H](CCC(N)=O)C(=O)N[C@@H]([C@@H](C)CC)C(=O)N[C@@H](C)C(=O)N[C@@H]([C@@H](C)CC)C(=O)N[C@H](C(=O)NCC(=O)N[C@@H](CCSC)C(=O)N[C@@H](CO)C(=O)N[C@H](C(=O)N[C@@H](Cc4c[nH]c5ccccc45)C(=O)N[C@@H](CO)C(=O)O)[C@@H](C)O)CSSC[C@@H](C(=O)O)NC(=O)[C@H](Cc4ccccc4)NC(=O)[C@H](CCCNC(=N)N)NC(=O)[C@H](C)NC(=O)[C@H](CC(C)C)NC(=O)[C@H](CO)NC(=O)[C@H](CCCNC(=N)N)NC(=O)[C@H](CCCCN)NC(=O)[C@H]([C@@H](C)O)NC3=O)NC2=O)cc1)C(=O)O` [AQ1-EEEEEE-Glu^γ-C14-CH3] showed an EC50 of 0.38 nM. Still for that read-out and setting: to `CC[C@H](C)[C@@H]1NC(=O)[C@H](C)NC(=O)[C@H]([C@@H](C)CC)NC(=O)[C@H](CCC(N)=O)NC(=O)[C@H](C)NC(=O)[C@H](CCCNC(=N)N)NC(=O)[C@H](C(C)C)NC(=O)[C@H](CC(C)C)NC(=O)[C@H](CCC(=O)O)NC(=O)[C@H](CCCNC(=N)N)NC(=O)CNC(=O)[C@@H](NC(=O)[C@H](CC(C)C)NC(=O)[C@H](CCCCN)NC(=O)[C@@H](NC(=O)[C@@H](NC(=O)[C@H](CCC(=O)O)NC(=O)[C@H](CCC(=O)O)NC(=O)[C@H](CCSC)NC(=O)[C@H](Cc2c[nH]c3ccccc23)NC(=O)[C@H](CO)NC(=O)[C@H](C)N)C(C)C)[C@@H](C)CC)CSSC[C@@H]2NC(=O)[C@@H](NC(=O)[C@H](CCCCN)NC(=O)[C@H](CC(N)=O)NC(=O)[C@H](C)NC(=O)[C@H](CC(C)C)NC(=O)[C@H](C)NC(=O)[C@H](CO)NC(=O)[C@H](Cc3ccc(O)cc3)NC(=O)[C@H](CC(C)C)NC(=O)[C@@H](N)Cc3ccc(C(C)=NOCCNC(=O)[C@H](CCC(=O)O)NC(=O)CNC(=O)CNC(=O)CNC(=O)CNC(=O)[C@H](CO)NC(=O)[C@H](CCCCN)NC(=O)CC[C@H](NC(=O)CCCCCCCCCCCCC(=O)O)C(=O)O)cc3)CSSC[C@H](NC(=O)CNC(=O)[C@H](C(C)C)NC(=O)[C@H](Cc3c[nH]cn3)NC2=O)C(=O)N[C@@H]([C@@H](C)O)C(=O)N[C@@H](CCCCN)C(=O)N[C@@H](CCCNC(=N)N)C(=O)N[C@@H](CO)C(=O)N[C@@H](CC(C)C)C(=O)N[C@@H](C)C(=O)N[C@@H](CCCNC(=N)N)C(=O)N[C@@H](Cc2ccccc2)C(=O)N[C@H](C(=O)O)CSSC[C@@H](C(=O)NCC(=O)N[C@@H](CCSC)C(=O)N[C@@H](CO)C(=O)N[C@H](C(=O)N[C@@H](Cc2c[nH]c3ccccc23)C(=O)N[C@@H](CO)C(=O)O)[C@@H](C)O)NC1=O` [AQ1-EGGGGSK-Glu^γ-C13-COOH] belongs 0.31 nM.
